Measurements taken from article PMC9863297, “Intermolecular Interactions of Edaravone in Aqueous Solutions of Ethaline and Glyceline Inferred from Experiments and Quantum Chemistry Computations” (Molecules, 2023).
In brackets after ≈: the same amount, converted by molar mass. Where two headings read alike, the source gives them in different places.

Assay: Edaravone solubility, slurry/shake-flask method with spectrophotometric determination at 243 nm
Format: physicochemical
Conditions: for solubility at 24 h: read-out: cE solubility concentration; for volume of saturated solution containing the recommended 60 mg: solubility at 298.15 K
Method: The first step in obtaining a calibration curve was the preparation of a stock solution of edaravone with a concentration of 2.3 mg/mL. This initial solution was successfully diluted in 10 mL volumetric flasks with methanol and the obtained solutions with decreasing concentrations were measured spectrophotometrically. […] Three separate curves were obtained, and the final curve resulted from averaging. […] The limits of detection (LOD) and quantification (LOQ) were calculated as 5.899∙10^−4 mg/mL and 1.770∙10^−3 mg/mL, respectively.
All of the studied deep eutectic solvents included choline chloride, while the second constituent was either glycerol or ethylene glycol. In order to prepare a DES formulation, choline chloride was mixed with the second compound in different molar ratios in sealed test tubes and placed in a water bath at 363.15 K until the formation of a uniform solution. The obtained DES were either used in their neat form or water was added to them in different proportions in order to form binary systems.
During the next stage, edaravone was added in excess amounts to the test tubes containing both neat DES and binary mixtures, which enabled us to obtain its saturated solutions. Samples prepared in such a manner were placed in an Orbital Shaker Incubator ES-20/60 from Biosan (Riga, Latvia) and incubated for 24 h at different temperatures, namely 298.15 K, 303.15 K, 308.15 K and 313.15 K. The temperature adjustment accuracy was 0.1 K and its variability in a 24 h cycle was ±0.5 K. Apart from heating, all of the samples were mixed at 60 rev/min. The increased viscosity and density of DES systems required the samples to be centrifuged at 1000 rev/min for 5 min with the use of EBA 20 centrifuge from Hettich (Tuttlingen, Germany) enabling the undissolved precipitate to remain on the bottom of the test tubes. Next, the samples were filtered using a syringe equipped with a PTFE syringe filer with 0.22 µm pore size. In order to avoid precipitation, the test tubes, syringes and filters were initially heated at a temperature equal to the one of the handled samples. Finally, small amounts of the obtained filtrate were transferred to test tubes filled with methanol and the diluted samples were measured spectrophotometrically. Additionally, for the determination of the mole fractions of edaravone, the density of the samples was measured by weighing a fixed volume of the solution in 10 mL volumetric flasks.
For determining the solubility of edaravone in the studied systems, the samples prepared, as described above, were measured spectrophotometrically using an A360 spectrophotometer from AOE Instruments (Shanghai, China). The spectra were recorded in the 190 nm to 500 nm wavelength range and 1 nm resolution. Methanol was used for the initial calibration of the spectrophotometer and for the dilution of the measured samples, which was conducted in order for the absorbance values to remain below 2.5. The absorbance values at 243 nm were taken into account and based on the calibration curve prepared earlier, the concentration of edaravone in the samples was determined, followed by its mole fractions. The values were averaged from three separate measurements.

xE mole fraction solubility (neat DES choline chloride + glycerol (GLE) 1:2 molar ratio (x*GLE = 1.0), 303.15 K): 1606.43 (±50.52) mole fraction ∙10^4
xE mole fraction solubility (neat DES choline chloride + glycerol (GLE) 1:2 molar ratio (x*GLE = 1.0), 308.15 K): 2151.57 (±64.56) mole fraction ∙10^4
xE mole fraction solubility (neat DES choline chloride + glycerol (GLE) 1:2 molar ratio (x*GLE = 1.0), 313.15 K): 2991.42 (±64.1) mole fraction ∙10^4
xE mole fraction solubility (neat DES choline chloride + glycerol (GLE) 1:4 molar ratio, 298.15 K): 926.44 (±23.62) mole fraction ∙10^4
xE mole fraction solubility (neat DES choline chloride + glycerol (GLE) 1:4 molar ratio, 303.15 K): 1321.28 (±36.17) mole fraction ∙10^4
xE mole fraction solubility (neat DES choline chloride + glycerol (GLE) 1:4 molar ratio, 308.15 K): 1861.97 (±40.45) mole fraction ∙10^4
xE mole fraction solubility (neat DES choline chloride + glycerol (GLE) 1:4 molar ratio, 313.15 K): 2739.72 (±65.05) mole fraction ∙10^4
solubility at 24 h (neat deep eutectic solvent, 25 °C, organic solvent or mixture, thermodynamic from solid, neat DES choline chloride + ethylene glycol (ETA) 1:1 molar ratio, 298.15 K): 190 mg/mL
solubility at 24 h (neat deep eutectic solvent, 25 °C, organic solvent or mixture, thermodynamic from solid, neat DES choline chloride + ethylene glycol (ETA) 1:2 molar ratio (x*ETA = 1.0), 298.15 K): 303 mg/mL
solubility at 24 h (neat deep eutectic solvent, 25 °C, organic solvent or mixture, thermodynamic from solid, neat DES choline chloride + ethylene glycol (ETA) 1:4 molar ratio, 298.15 K): 280 mg/mL
solubility at 24 h (neat deep eutectic solvent, 25 °C, organic solvent or mixture, thermodynamic from solid, neat DES choline chloride + glycerol (GLE) 1:1 molar ratio, 298.15 K): 138 mg/mL
solubility at 24 h (neat deep eutectic solvent, 30 °C, organic solvent or mixture, thermodynamic from solid, neat DES choline chloride + ethylene glycol (ETA) 1:1 molar ratio, 303.15 K): 252 mg/mL
solubility at 24 h (neat deep eutectic solvent, 30 °C, organic solvent or mixture, thermodynamic from solid, neat DES choline chloride + ethylene glycol (ETA) 1:2 molar ratio (x*ETA = 1.0), 303.15 K): 392 mg/mL
solubility at 24 h (neat deep eutectic solvent, 30 °C, organic solvent or mixture, thermodynamic from solid, neat DES choline chloride + ethylene glycol (ETA) 1:4 molar ratio, 303.15 K): 347 mg/mL
solubility at 24 h (neat deep eutectic solvent, 35 °C, organic solvent or mixture, thermodynamic from solid, neat DES choline chloride + ethylene glycol (ETA) 1:1 molar ratio, 308.15 K): 360 mg/mL
solubility at 24 h (neat deep eutectic solvent, 35 °C, organic solvent or mixture, thermodynamic from solid, neat DES choline chloride + ethylene glycol (ETA) 1:2 molar ratio (x*ETA = 1.0), 308.15 K): 499 mg/mL
solubility at 24 h (neat deep eutectic solvent, 35 °C, organic solvent or mixture, thermodynamic from solid, neat DES choline chloride + ethylene glycol (ETA) 1:4 molar ratio, 308.15 K): 467 mg/mL
solubility at 24 h (neat deep eutectic solvent, 40 °C, organic solvent or mixture, thermodynamic from solid, neat DES choline chloride + ethylene glycol (ETA) 1:1 molar ratio, 313.15 K): 484 mg/mL
solubility at 24 h (neat deep eutectic solvent, 40 °C, organic solvent or mixture, thermodynamic from solid, neat DES choline chloride + ethylene glycol (ETA) 1:2 molar ratio (x*ETA = 1.0), 313.15 K): 593 mg/mL
solubility at 24 h (neat deep eutectic solvent, 40 °C, organic solvent or mixture, thermodynamic from solid, neat DES choline chloride + ethylene glycol (ETA) 1:4 molar ratio, 313.15 K): 602 mg/mL
xE mole fraction solubility (neat water (x*DES = 0.0), 298.15 K): 1.73(±0.01) mole fraction ∙10^4
xE mole fraction solubility (neat water (x*DES = 0.0), 303.15 K): 1.78(±0.01) mole fraction ∙10^4
xE mole fraction solubility (neat water (x*DES = 0.0), 308.15 K): 1.84(±0.02) mole fraction ∙10^4
xE mole fraction solubility (neat water (x*DES = 0.0), 313.15 K): 1.93(±0.01) mole fraction ∙10^4
mole fraction solubility ratio, ethylene glycol system vs glycerol system (optimal 1:2 composition, average over temperatures): 1.34 times
volume of saturated solution containing the recommended 60 mg (optimal aqueous composition ETA): 0.14 mL
volume of saturated solution containing the recommended 60 mg (optimal aqueous composition GLE): 0.18 mL
solubility increase in optimal binary composition compared to neat DES (systems with ethylene glycol, x*DES = 0.6, average): 17%
xE mole fraction solubility (water + ETA (ChCl:EG 1:2), x*ETA = 0.2, 298.15 K): 454.10(±5.48) mole fraction ∙10^4
xE mole fraction solubility (water + ETA (ChCl:EG 1:2), x*ETA = 0.2, 303.15 K): 574.18(±8.89) mole fraction ∙10^4
xE mole fraction solubility (water + ETA (ChCl:EG 1:2), x*ETA = 0.2, 308.15 K): 742.26(±18.45) mole fraction ∙10^4
xE mole fraction solubility (water + ETA (ChCl:EG 1:2), x*ETA = 0.2, 313.15 K): 890.33(±10.84) mole fraction ∙10^4
xE mole fraction solubility (water + ETA (ChCl:EG 1:2), x*ETA = 0.4, 298.15 K): 1353.93(±5.00) mole fraction ∙10^4
xE mole fraction solubility (water + ETA (ChCl:EG 1:2), x*ETA = 0.4, 303.15 K): 1819.02(±41.45) mole fraction ∙10^4
xE mole fraction solubility (water + ETA (ChCl:EG 1:2), x*ETA = 0.4, 308.15 K): 2386.29(±27.09) mole fraction ∙10^4
xE mole fraction solubility (water + ETA (ChCl:EG 1:2), x*ETA = 0.4, 313.15 K): 2954.32(±49.04) mole fraction ∙10^4
xE mole fraction solubility (water + ETA (ChCl:EG 1:2), x*ETA = 0.5, 298.15 K): 1754.56(±31.02) mole fraction ∙10^4
xE mole fraction solubility (water + ETA (ChCl:EG 1:2), x*ETA = 0.5, 303.15 K): 2316.25(±38.27) mole fraction ∙10^4
xE mole fraction solubility (water + ETA (ChCl:EG 1:2), x*ETA = 0.5, 308.15 K): 3073.71(±53.04) mole fraction ∙10^4
xE mole fraction solubility (water + ETA (ChCl:EG 1:2), x*ETA = 0.5, 313.15 K): 3822.75(±61.93) mole fraction ∙10^4
xE mole fraction solubility (water + ETA (ChCl:EG 1:2), x*ETA = 0.6, 298.15 K): 1934.93(±34.18) mole fraction ∙10^4
xE mole fraction solubility (water + ETA (ChCl:EG 1:2), x*ETA = 0.6, 303.15 K): 2552.36(±52.56) mole fraction ∙10^4
xE mole fraction solubility (water + ETA (ChCl:EG 1:2), x*ETA = 0.6, 308.15 K): 3306.79(±48.29) mole fraction ∙10^4
xE mole fraction solubility (water + ETA (ChCl:EG 1:2), x*ETA = 0.6, 313.15 K): 3982.72(±70.26) mole fraction ∙10^4
xE mole fraction solubility (water + ETA (ChCl:EG 1:2), x*ETA = 0.8, 298.15 K): 1713.96(±31.15) mole fraction ∙10^4
xE mole fraction solubility (water + ETA (ChCl:EG 1:2), x*ETA = 0.8, 303.15 K): 2241.64(±42.78) mole fraction ∙10^4
xE mole fraction solubility (water + ETA (ChCl:EG 1:2), x*ETA = 0.8, 308.15 K): 2989.20(±42.33) mole fraction ∙10^4
xE mole fraction solubility (water + ETA (ChCl:EG 1:2), x*ETA = 0.8, 313.15 K): 3720.80(±28.54) mole fraction ∙10^4
xE mole fraction solubility (water + GLE (ChCl:GL 1:2), x*GLE = 0.2, 298.15 K): 235.51(±9.67) mole fraction ∙10^4
xE mole fraction solubility (water + GLE (ChCl:GL 1:2), x*GLE = 0.2, 303.15 K): 309.2(±4.30) mole fraction ∙10^4
xE mole fraction solubility (water + GLE (ChCl:GL 1:2), x*GLE = 0.2, 308.15 K): 435.07(±4.04) mole fraction ∙10^4
xE mole fraction solubility (water + GLE (ChCl:GL 1:2), x*GLE = 0.2, 313.15 K): 564.61(±7.05) mole fraction ∙10^4
xE mole fraction solubility (water + GLE (ChCl:GL 1:2), x*GLE = 0.4, 298.15 K): 743.88(±5.92) mole fraction ∙10^4
xE mole fraction solubility (water + GLE (ChCl:GL 1:2), x*GLE = 0.4, 303.15 K): 1116.64(±2.70) mole fraction ∙10^4
xE mole fraction solubility (water + GLE (ChCl:GL 1:2), x*GLE = 0.4, 308.15 K): 1444.07(±14.86) mole fraction ∙10^4
xE mole fraction solubility (water + GLE (ChCl:GL 1:2), x*GLE = 0.4, 313.15 K): 2014.09(±17.34) mole fraction ∙10^4
xE mole fraction solubility (water + GLE (ChCl:GL 1:2), x*GLE = 0.5, 298.15 K): 1121.47(±10.85) mole fraction ∙10^4
xE mole fraction solubility (water + GLE (ChCl:GL 1:2), x*GLE = 0.5, 303.15 K): 1673.69(±20.61) mole fraction ∙10^4
xE mole fraction solubility (water + GLE (ChCl:GL 1:2), x*GLE = 0.5, 308.15 K): 2236.41(±28.00) mole fraction ∙10^4
xE mole fraction solubility (water + GLE (ChCl:GL 1:2), x*GLE = 0.5, 313.15 K): 3065.17(±55.82) mole fraction ∙10^4
xE mole fraction solubility (water + GLE (ChCl:GL 1:2), x*GLE = 0.6, 298.15 K): 1450.22(±11.26) mole fraction ∙10^4
xE mole fraction solubility (water + GLE (ChCl:GL 1:2), x*GLE = 0.6, 303.15 K): 2089.77(±58.10) mole fraction ∙10^4
xE mole fraction solubility (water + GLE (ChCl:GL 1:2), x*GLE = 0.6, 308.15 K): 2723.73(±61.99) mole fraction ∙10^4
xE mole fraction solubility (water + GLE (ChCl:GL 1:2), x*GLE = 0.6, 313.15 K): 3567.08(±42.51) mole fraction ∙10^4
xE mole fraction solubility (water + GLE (ChCl:GL 1:2), x*GLE = 0.8, 298.15 K): 1305.70(±26.15) mole fraction ∙10^4
xE mole fraction solubility (water + GLE (ChCl:GL 1:2), x*GLE = 0.8, 303.15 K): 1852.98(±39.43) mole fraction ∙10^4
xE mole fraction solubility (water + GLE (ChCl:GL 1:2), x*GLE = 0.8, 308.15 K): 2525.56(±24.65) mole fraction ∙10^4
xE mole fraction solubility (water + GLE (ChCl:GL 1:2), x*GLE = 0.8, 313.15 K): 3420.95(±31.16) mole fraction ∙10^4
solubility at 24 h (water, neat water (x*DES = 0.0), 298.15 K): 1.72 mg/mL (≈ 9.87 mM)
solubility at 24 h (water, neat water (x*DES = 0.0), 303.15 K): 1.79 mg/mL (≈ 10.3 mM)
solubility at 24 h (water, neat water (x*DES = 0.0), 308.15 K): 1.87 mg/mL (≈ 10.7 mM)
solubility at 24 h (water, neat water (x*DES = 0.0), 313.15 K): 1.96 mg/mL (≈ 11.3 mM)
SMILES: CC1=NN(c2ccccc2)C(=O)C1 [edaravone, 5-methyl-2-phenyl-4H-pyrazol-3-one]
